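Method: 48-hour compound exposure of cells in 96-well plates, five concentrations, linear interpolation of endpoints. GI50 is the concentration that inhibits growth by half. TGI denotes the concentration required for complete inhibition of growth.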 Where a SMILES comes first, the peptide text is derived from it. [ ]: non-standard residue; d: D form. The star is where a group is joined. NMeF = CN[C@@H](Cc1ccccc1)C(=O)O; NMeV = CN[C@H](C(=O)O)C(C)C; Boc = CC(C)(C)OC(=O)*; OBn = c1ccc(CO*)cc1
Tests used:
Assay in all cases: growth of human tumour cells (NCI), 48 h
SN12C renal = test system: SN12C renal
A549 NSCLC = test system: A549 NSCLC
HOP-62 NSCLC = test system: HOP-62 NSCLC
CAKI-1 renal = test system: CAKI-1 renal
KM12 colon = test system: KM12 colon
MOLT-4 leukemia = test system: MOLT-4 leukemia
SK-MEL-5 melanoma = test system: SK-MEL-5 melanoma
SK-MEL-2 melanoma = test system: SK-MEL-2 melanoma
BT-549 breast = test system: BT-549 breast
SNB-75 CNS = test system: SNB-75 CNS

Compound	GI50 (SN12C renal)	TGI (SN12C renal)	GI50 (A549 NSCLC)	TGI (A549 NSCLC)	GI50 (HOP-62 NSCLC)	TGI (HOP-62 NSCLC)	GI50 (CAKI-1 renal)	TGI (CAKI-1 renal)	GI50 (KM12 colon)	TGI (KM12 colon)	GI50 (MOLT-4 leukemia)	TGI (MOLT-4 leukemia)	GI50 (SK-MEL-5 melanoma)	TGI (SK-MEL-5 melanoma)	GI50 (SK-MEL-2 melanoma)	TGI (SK-MEL-2 melanoma)	GI50 (BT-549 breast)	TGI (BT-549 breast)	GI50 (SNB-75 CNS)	TGI (SNB-75 CNS)
CC(C)n1c(=O)n(C)c2cnc3cc(F)c(-c4ccc(OCCCN5CCCCC5)nc4)cc3c21	7.14 µM	42.8 µM	16.3 µM	63.9 µM	4.99 µM	28.3 µM	22.9 µM	> 100 µM	4.19 µM	28.8 µM	5.47 µM	41.5 µM	6.41 µM	19.1 µM	14.4 µM	30.2 µM	10.1 µM	28.4 µM	4.24 µM	18.1 µM
C=C(C)[C@@H]1CC[C@]2(C(=O)O)CC[C@]3(C)[C@H](CC[C@@H]4[C@@]5(C)C/C(=C/c6ccc(OC)cc6)C(=O)C(C)(C)[C@@H]5CC[C@]43C)[C@@H]12	2.07 µM	5.9 µM	1.3 µM	4.56 µM	2.24 µM	7.51 µM	2.16 µM	11.5 µM	1.71 µM	4.12 µM	2.97 µM	> 100 µM	2.03 µM	4.12 µM	2.38 µM	6.29 µM	1.89 µM	4.34 µM	2.68 µM	27.1 µM
CS(=O)(=O)c1ccc(Oc2cc(F)cc(C#N)c2)c2c1[C@H](O)C(F)(F)C2	> 100 µM	> 100 µM	> 100 µM	> 100 µM	> 100 µM	> 100 µM	> 100 µM	> 100 µM	> 100 µM	> 100 µM	> 100 µM	> 100 µM	> 100 µM	> 100 µM	> 100 µM	> 100 µM	> 100 µM	> 100 µM	> 100 µM	> 100 µM
COc1ccc(CCN2CCC(Nc3nc4ccccc4n3Cc3ccc(F)cc3)CC2)cc1	1.51 µM	2.96 µM	1.82 µM	3.75 µM	1.72 µM	3.15 µM	1.52 µM	3.24 µM	1.71 µM	3.13 µM	1.67 µM	4.71 µM	1.32 µM	2.6 µM	2.29 µM	4.78 µM	1.6 µM	2.96 µM	1.24 µM	2.54 µM
CCC(c1ccc2cc(O)ccc2c1)C(C)(C)C(=O)O (stereo not drawn)	–	> 100 µM	–	> 100 µM	–	> 100 µM	–	> 100 µM	–	> 100 µM	–	> 100 µM	–	> 100 µM	–	> 100 µM	–	> 100 µM	–	> 100 µM
S=C(c1ccc2c(c1)OCO2)N1CCN(c2cccc(Cl)c2)CC1	7.51 µM	> 100 µM	0.872 µM	> 40.2 µM	3.27 µM	> 59.2 µM	–	> 100 µM	0.447 µM	29.7 µM	2.28 µM	> 55.8 µM	0.454 µM	> 100 µM	> 100 µM	> 100 µM	9.32 µM	> 100 µM	0.572 µM	> 27.4 µM
COc1cc(-n2cnc(-c3ccc(Cl)cc3)c2)cc(OC)c1OC	> 100 µM	> 100 µM	> 100 µM	> 100 µM	24.1 µM	71.5 µM	24.9 µM	> 100 µM	> 100 µM	> 100 µM	19.2 µM	39.9 µM	67.8 µM	> 100 µM	18.3 µM	40.1 µM	16.7 µM	31.3 µM	16.5 µM	34.8 µM
O=C(NCCNc1nccc(-c2c(-c3ccc(F)cc3)nc3sccn23)n1)c1ccccc1	6.52 µM	48.4 µM	4.11 µM	96.7 µM	16.9 µM	34.7 µM	2.48 µM	25.1 µM	7.6 µM	22.4 µM	12.2 µM	54.8 µM	1.66 µM	13.3 µM	8.75 µM	39.3 µM	14.3 µM	34 µM	7.27 µM	62.5 µM
N#CCCSC(=S)C1CCCC1=N (stereo not drawn)	–	> 100 µM	–	> 100 µM	–	> 100 µM	–	> 100 µM	–	> 100 µM	–	> 100 µM	–	> 100 µM	–	> 100 µM	–	> 100 µM	–	94.4 µM
N#Cc1c(N)nc(NCc2ccccc2)c(C#N)c1-c1ccccc1Cl	4.53 µM	25.1 µM	21.3 µM	> 100 µM	4.47 µM	18 µM	14.6 µM	> 100 µM	47 µM	> 100 µM	26.8 µM	> 100 µM	51.3 µM	> 100 µM	22.9 µM	93.5 µM	16.7 µM	53.9 µM	10.3 µM	48.8 µM
COc1cccc(Cn2c(-c3nonc3NC(C)=O)nc3ccccc32)c1	5.48 µM	> 100 µM	5.81 µM	> 100 µM	8.53 µM	> 100 µM	2.05 µM	> 100 µM	4 µM	> 100 µM	5.63 µM	> 100 µM	3.76 µM	> 100 µM	3.07 µM	18.9 µM	8.79 µM	> 100 µM	0.144 µM	3.85 µM
O=C1/C(=C/c2ccccc2F)CN(C(=O)C(Cl)Cl)C/C1=C\c1ccccc1F	0.244 µM	0.691 µM	1.38 µM	3.32 µM	0.906 µM	2.44 µM	0.986 µM	2.3 µM	0.245 µM	0.685 µM	0.329 µM	–	0.533 µM	1.64 µM	1.6 µM	3.62 µM	0.422 µM	1.44 µM	0.572 µM	1.95 µM
O=C(NC1CCCCC1)NS(=O)(=O)c1ccc(-n2nc3c(c2-c2ccc(Cl)cc2)Cc2ccccc2-3)cc1	7.54 µM	30.3 µM	16.6 µM	34.6 µM	35.8 µM	> 100 µM	4.52 µM	19.3 µM	10.6 µM	30.4 µM	2.77 µM	7.28 µM	12.1 µM	40.2 µM	19.4 µM	44.2 µM	3.52 µM	17.3 µM	27.6 µM	> 100 µM
CC(C)[C@@H](C(=O)N1CCC[C@H]1C(=O)OCc1ccccc1)N(C)C(=O)[C@H](C(C)C)N(C)C(=O)[C@H](Cc1ccccc1)N(C)C(=O)[C@H](NC(=O)OC(C)(C)C)C(C)C (Boc-[dV][NMeF][NMeV][NMeV]P-OBn)	–	> 100 µM	> 100 µM	> 100 µM	–	> 100 µM	> 100 µM	> 100 µM	> 100 µM	> 100 µM	3.68 µM	> 100 µM	–	> 100 µM	–	> 100 µM	–	> 50 µM	> 100 µM	> 100 µM

Source: PubChem BioAssay (NCI)
